Data on 23 compounds can be found in PubChem BioAssay AID330 (DTP/NCI, 2004).

This test concerns P388 leukemia ip, CD2F1 mice, survival T/C. The test is described as follows: NCI In Vivo Anticancer Drug Screen. Data for tumor model P388 Leukemia (intraperitoneal) in CD2F1 (CDF1) mice. To be noted: endpoint: median survival time, higher = longer survival. The method, boiled down:
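Mice carrying the transplanted tumor received test compound or vehicle. Survival was recorded in each group, and the value is the treated-group measurement divided by that of the vehicle-treated control group.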

Setting [1] is: dose: 15.0 mg/kg/injection, schedule: Q01DX005 (ip), vehicle: saline with Tween-80.
Where [2] appears, read: dose: 30.0 mg/kg/injection, schedule: Q01DX005 (ip), vehicle: saline with Tween-80.
The mark [3] stands for this setting: dose: 60.0 mg/kg/injection, schedule: Q01DX005 (ip), vehicle: saline with Tween-80.
The mark [4] stands for this setting: dose: 50.0 mg/kg/injection, schedule: Q01DX005 (ip), vehicle: saline.
Where [5] appears, read: dose: 100.0 mg/kg/injection, schedule: Q01DX005 (ip), vehicle: saline.
Where [6] appears, read: dose: 200.0 mg/kg/injection, schedule: Q01DX005 (ip), vehicle: saline.
Where [7] appears, read: dose: 50.0 mg/kg/injection, schedule: Q01DX009 (ip), vehicle: saline with Tween-80.
[8] abbreviates: dose: 100.0 mg/kg/injection, schedule: Q01DX009 (ip), vehicle: saline with Tween-80.
[9] abbreviates: dose: 200.0 mg/kg/injection, schedule: Q01DX009 (ip), vehicle: saline with Tween-80.
[10] abbreviates: dose: 120.0 mg/kg/injection, schedule: Q01DX005 (ip), vehicle: saline with Tween-80.
[11] abbreviates: dose: 240.0 mg/kg/injection, schedule: Q01DX005 (ip), vehicle: saline with Tween-80.
[12] abbreviates: dose: 25.0 mg/kg/injection, schedule: Q01DX005 (ip), vehicle: Klucel (hydroxypropylcellulose) (HPC).
Setting [13] is: dose: 50.0 mg/kg/injection, schedule: Q01DX005 (ip), vehicle: Klucel (hydroxypropylcellulose) (HPC).
The mark [14] stands for this setting: dose: 100.0 mg/kg/injection, schedule: Q01DX005 (ip), vehicle: Klucel (hydroxypropylcellulose) (HPC).
Where [15] appears, read: dose: 200.0 mg/kg/injection, schedule: Q01DX005 (ip), vehicle: Klucel (hydroxypropylcellulose) (HPC).

Several values for one entry are separate records, joined by “and”; a condition that tells them apart may be missing. Equal entries are not always repeated. Inconclusive results and toxic doses are left out.

For the compound `COc1ccc(C(CC(=O)O)CC(=O)N(CCCl)CCCl)cc1` (configuration not stated), the T/C is, setting by setting: (dose: 25.0 mg/kg/injection, schedule: Q01DX001 (ip), vehicle: saline) 100 % of control and 102 % of control; (dose: 25.0 mg/kg/injection, schedule: Q04DX003 (ip), vehicle: saline with Tween-80) 101 % of control; (dose: 25.0 mg/kg/injection, schedule: Q04DX003 (ip), vehicle: saline) 102 % of control; (dose: 25.0 mg/kg/injection, schedule: Q04DX003 (ip), vehicle: suspension in saline) 106 % of control; (dose: 50.0 mg/kg/injection, schedule: Q01DX001 (ip), vehicle: saline) 100 % of control and 103 % of control; (dose: 50.0 mg/kg/injection, schedule: Q04DX003 (ip), vehicle: saline with Tween-80) 102 % of control. For the same compound, the T/C (dose: 50.0 mg/kg/injection, schedule: Q04DX003 (ip), vehicle: saline) is 102 % of control; the T/C (dose: 50.0 mg/kg/injection, schedule: Q04DX003 (ip), vehicle: suspension in saline) is 115 % of control; the T/C (dose: 100.0 mg/kg/injection, schedule: Q01DX001 (ip), vehicle: saline) is 100 % of control and 103 % of control; the T/C (dose: 100.0 mg/kg/injection, schedule: Q04DX003 (ip), vehicle: saline with Tween-80) is 101 % of control; the T/C (dose: 100.0 mg/kg/injection, schedule: Q04DX003 (ip), vehicle: saline) was 97 % of control; the T/C (dose: 100.0 mg/kg/injection, schedule: Q04DX003 (ip), vehicle: suspension in saline) is 124 % of control. The T/C was 100 % of control and 104 % of control (dose: 200.0 mg/kg/injection, schedule: Q01DX001 (ip), vehicle: saline); 101 % of control (dose: 200.0 mg/kg/injection, schedule: Q04DX003 (ip), vehicle: saline with Tween-80); 94 % of control (dose: 200.0 mg/kg/injection, schedule: Q04DX003 (ip), vehicle: saline); 157 % of control (dose: 200.0 mg/kg/injection, schedule: Q04DX003 (ip), vehicle: suspension in saline).

For the compound `CC(C)C12CCC(=O)C=C1CCCC2O` (configuration not stated), the T/C was 90 % of control (dose: 100.0 mg/kg/injection, schedule: Q01DX009 (ip), vehicle: saline sonified); 100 % of control (dose: 200.0 mg/kg/injection, schedule: Q01DX009 (ip), vehicle: saline sonified); 109 % of control (dose: 400.0 mg/kg/injection, schedule: Q01DX009 (ip), vehicle: saline sonified).

Take `CC(C)(C)[OH+][O-].[O-]c1ccc(Cl)cc1C=Nc1ccc(Cl)cc1[O-].[O]=[V]`: the T/C was 100 % of control under setting [1]; 100 % of control under setting [2]; 101 % of control and 93 % of control under setting [3].

As for `NC1=NC(=O)C(N=O)C(=O)N1` (configuration not stated), the T/C is 99 % of control (dose: 100.0 mg/kg/injection, schedule: Q04DX002 (ip), vehicle: saline with Tween-80); 107 % of control (dose: 200.0 mg/kg/injection, schedule: Q04DX002 (ip), vehicle: saline with Tween-80); 106 % of control (dose: 400.0 mg/kg/injection, schedule: Q04DX002 (ip), vehicle: saline with Tween-80).

As to `NC(=O)C1C(=O)NC(=O)C1=O` (configuration not stated), the T/C runs as follows: under setting [1], 100 % of control; under setting [2], 101 % of control; under setting [3], 109 % of control and 114 % of control.

Regarding `NC(=O)CS(=O)CC(N)C(=O)O` (configuration not stated), the T/C under setting [4] was 100 % of control, the T/C under setting [5] was 105 % of control and the T/C under setting [6] is 95 % of control.

As for `Cc1ccc(S(=O)(=O)OCCN2CC2)cc1`, the T/C under setting [7] was 94 % of control, the T/C under setting [8] is 89 % of control and the T/C under setting [9] is 99 % of control.

As for `Nc1nnc(-c2ccc(Cl)cc2)o1`, the T/C by setting is: under setting [3], 100 % of control; under setting [10], 110 % of control; under setting [11], 103 % of control.

For `CCOC1=N[C@H](C)[C@H](C)N1`, the T/C by setting is: under setting [4], 100 % of control; under setting [5], 103 % of control.

Consider `CN1CCN(C(=O)CCSc2nc(-c3ccccc3)c(-c3ccccc3)o2)CC1`, for which the T/C reads like this: (dose: 50.0 mg/kg/injection, schedule: Q01DX009 (ip), vehicle: saline) 110 % of control; (dose: 100.0 mg/kg/injection, schedule: Q01DX009 (ip), vehicle: saline) 110 % of control.

With `C/C(=N\NC(=S)Nc1ccc(C(=O)O)cc1)c1ccc2ccccc2n1`, the T/C is 105 % of control (dose: 50.0 mg/kg/injection, schedule: Q01DX005 (ip), vehicle: saline with Tween-80) and 114 % of control (dose: 100.0 mg/kg/injection, schedule: Q01DX005 (ip), vehicle: saline with Tween-80).

As for `O=C(/C=C/c1ccc(O)cc1)NCCc1c[nH]c2ccc(O)cc12`, the T/C is, setting by setting: (dose: 25.0 mg/kg/injection, schedule: Q01DX005 (ip), vehicle: Klucel + Tween-80) 106 % of control; (dose: 50.0 mg/kg/injection, schedule: Q01DX005 (ip), vehicle: Klucel + Tween-80) 97 % of control; (dose: 100.0 mg/kg/injection, schedule: Q01DX005 (ip), vehicle: Klucel + Tween-80) 92 % of control; (dose: 200.0 mg/kg/injection, schedule: Q01DX005 (ip), vehicle: Klucel + Tween-80) 95 % of control.

Take `Clc1ccc(CN2COc3c(ccc4cccnc34)C2)c(Cl)c1`: the T/C (dose: 100.0 mg/kg/injection, schedule: Q04DX003 (ip), vehicle: Klucel (hydroxypropylcellulose) (HPC)) was 95 % of control; the T/C (dose: 200.0 mg/kg/injection, schedule: Q04DX003 (ip), vehicle: Klucel (hydroxypropylcellulose) (HPC)) was 104 % of control; the T/C (dose: 400.0 mg/kg/injection, schedule: Q04DX003 (ip), vehicle: Klucel (hydroxypropylcellulose) (HPC)) is 117 % of control.

Take `N#CC1C(=O)NC(=S)NC1c1ccco1` (configuration not stated): the T/C (dose: 50.0 mg/kg/injection, schedule: Q01DX009 (ip), vehicle: Klucel (hydroxypropylcellulose) (HPC)) is 100 % of control; the T/C (dose: 100.0 mg/kg/injection, schedule: Q01DX009 (ip), vehicle: Klucel (hydroxypropylcellulose) (HPC)) is 95 % of control; the T/C (dose: 200.0 mg/kg/injection, schedule: Q01DX009 (ip), vehicle: Klucel (hydroxypropylcellulose) (HPC)) was 92 % of control.

As to `Cn1ncc(N)nc1=S`, the T/C was 101 % of control (dose: 50.0 mg/kg/injection, schedule: Q01DX005 (ip), vehicle: suspension in saline); 97 % of control (dose: 100.0 mg/kg/injection, schedule: Q01DX005 (ip), vehicle: suspension in saline); 105 % of control (dose: 200.0 mg/kg/injection, schedule: Q01DX005 (ip), vehicle: suspension in saline).

In the case of `O=Nc1c(O)n(-c2ccccc2)c(=O)[nH]c1=O`, the T/C by setting is: (dose: 50.0 mg/kg/injection, schedule: Q04DX002 (ip), vehicle: suspension in saline) 100 % of control; (dose: 100.0 mg/kg/injection, schedule: Q04DX002 (ip), vehicle: suspension in saline) 101 % of control; (dose: 200.0 mg/kg/injection, schedule: Q04DX002 (ip), vehicle: suspension in saline) 101 % of control.

As to `O=C(Oc1ccccc1)c1ccc([N+](=O)[O-])cc1`, the T/C was 100 % of control under setting [12], 105 % of control under setting [13], 101 % of control under setting [14] and 104 % of control under setting [15].

On to `CCc1nc2c(cnn2C)c(=O)n1-c1ccc(C)cc1`, for which the T/C is 97 % of control under setting [13], 101 % of control under setting [14] and 98 % of control under setting [15].

For `Cc1nc2ccccc2nc1N1C(=O)c2ccccc2C1=O`, the T/C is, setting by setting: under setting [3], 97 % of control; under setting [10], 99 % of control; under setting [11], 95 % of control.

As to `CCOC(=O)c1ccccc1N1C(=O)c2ccccc2NP1(=O)Oc1ccccc1` (configuration not stated), the T/C under setting [12] was 106 % of control, the T/C under setting [13] is 103 % of control, the T/C under setting [14] is 106 % of control and the T/C under setting [15] is 98 % of control.

Consider `CCC[As](CCC)SC1OC(COC(C)=O)C(OC(C)=O)C(OC(C)=O)C1OC(C)=O` (configuration not stated), for which the T/C runs as follows: under setting [7], 117 % of control and 88 % of control; under setting [8], 107 % of control and 92 % of control; under setting [9], 110 % of control and 124 % of control.

With `Cc1cc(O)c(C(c2ccc3c(c2)OCO3)c2c(O)cc(C)[nH]c2=O)c(=O)[nH]1`, the T/C reads like this: under setting [7], 92 % of control; under setting [8], 98 % of control; under setting [9], 95 % of control.

Regarding `Cc1occ(Br)c(=O)c1O`, the T/C under setting [4] was 104 % of control, the T/C under setting [5] was 103 % of control and the T/C under setting [6] was 103 % of control.
